pEC50, pIC50: −log10 of the molar value. Like-named read-outs stand apart in the source and are kept apart here.
Tests used:
[1] = target: T1, HCV NS3/4A protease complex, BMS strain (UniProt P27958, C1454S/C1711G, species not given); assay: FRET peptide assay to monitor HCV NS3/4A proteolytic activity (BMS strain); format: biochemical, HCV genotype 1a; details: read-out: IC50 Range, HCV NS3/4A enzyme assay
T1 construct: other: HCV NS3/4A enzyme assay; class symbols; numeric values; fused on or other part: three-lysine solubilising tail at the C-terminus of NS4A; purified on Ni-NTA from the pET21b vector (His tag implied)
In short: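 Recombinant HCV NS3/4A protease complex (BMS strain, genotype 1a), 2-3 nM final (300 pM with 50 μg/ml BSA for very potent compounds), incubated with RET S1 EDANS/DABCYL depsipeptide substrate at 2 μM final. Buffer: 50 mM HEPES pH 7.5, 0.15 M NaCl, 0.1% Triton, 15% glycerol, 10 mM βME. Cleavage followed in real time by fluorescence.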

[2] = test system: HCV replicon in HUH-7 cells; assay: HCV replicon FRET assay; format: cell-based, HCV strain 1b; details: Hepatitis C virus
Excerpt: An HCV replicon whole cell system was established as described by Lohmann V, Korner F, Koch J, Herian U, Theilmann L, Bartenschlager R., Science 285(5424):110-3 (1999). This system enabled us to evaluate the effects of our HCV Protease compounds on HCV RNA replication. Briefly, using the HCV strain 1b sequence described in the Lohmann paper (Assession number:AJ238799), an HCV cDNA was synthesized by Operon Technologies, Inc. (Alameda, Calif.), and the full-length replicon was then assembled in plasmid pGem9zf(+) (Promega, Madison, Wis.) using standard molecular biology techniques. The replicon consists of (i) the HCV 5′ UTR fused to the first 12 amino acids of the capsid protein, (ii) the neomycin phosphotransferase gene (neo), (iii) the IRES from encephalomyocarditis virus (EMCV), and (iv) HCV NS3 to NS5B genes and the HCV 3′ UTR. Plasmid DNAs were linearized with ScaI and RNA transcripts were synthesized in vitro using the T7 MegaScript transcription kit (Ambion, Austin, Tex.) according to manufacturer's directions. In vitro transcripts of the eDNA were transfected into the human hepatoma cell line, HUH-7. […] Resulting cell lines were characterized for positive and negative strand RNA production and protein production over time.
The HCV replicon FRET assay was developed to monitor the inhibitory effects of compounds described in the disclosure on HCV viral replication. HUH-7 cells, constitutively expressing the HCV replicon, were grown in Dulbecco's Modified Eagle Media (DMEM) (Gibco-BRL) containing 10% Fetal calf serum (FCS) (Sigma) and 1 mg/ml G418 (Gibco-BRL). Cells were seeded the night before (1.5×10^4 cells/well) in 96-well tissue-culture sterile plates. Compound and no compound controls were prepared in DMEM containing 4% FCS, 1:100 Penicillin/Streptomysin (Gibco-BRL), 1:100 L-glutamine and 5% DMSO in the dilution plate (0.5% DMSO final concentration in the assay). Compound/DMSO mixes were added to the cells and incubated for 4 days at 37° C. After 4 days, cells were first assessed for cytotoxicity using alamar Blue (Trek Diagnotstic Systems) for a CC50 reading. The toxicity of compound (CC50) was determined by adding 1/10th volume of alamar Blue to the media incubating the cells. After 4 h, the fluorescence signal from each well was read, with an excitation wavelength at 530 nm and an emission wavelength of 580 nm, using the Cytofluor Series 4000 (Perspective Biosystems). Plates were then rinsed thoroughly with Phosphate-Buffered Saline (PBS) (3 times 150 μl).

[3] = Huh-7, HCV replicon cell assay, numeric values, read-out: EC50 Range

Compound	pIC50 ([1]; class symbols)	pEC50 ([2]; Huh-7, read-out: EC50 Range)	pIC50 ([1]; numeric values)	pEC50 [2, 3]
C=C[C@@H]1C[C@]1(NC(=O)[C@@H]1C[C@@H](Oc2ncc(OC)c3ccc(Cl)cc23)CN1C(=O)[C@@H](Nc1nc(-c2ccc(Cl)c(Cl)c2)cs1)C(C)(C)C)C(=O)NS(=O)(=O)C1CC1 [Example 29]	7.70 to 9.00	7.30 to 9.00		
C=C[C@@H]1C[C@]1(NC(=O)[C@@H]1C[C@@H](Oc2ncc(OC)c3ccc(Cl)cc23)CN1C(=O)[C@@H](Nc1nc(-c2cc(OC)ccc2OC)cs1)C(C)(C)C)C(=O)NS(=O)(=O)C1CC1 [Example 30]	7.70 to 9.00	7.30 to 9.00		
C=C[C@@H]1C[C@]1(NC(=O)[C@@H]1C[C@@H](Oc2ncc(OC)c3ccc(Cl)cc23)CN1C(=O)[C@@H](Nc1nc(-c2ccc(Br)cc2)cs1)C(C)(C)C)C(=O)NS(=O)(=O)C1CC1 [Example 31]	7.70 to 9.00	7.30 to 9.00		
C=C[C@@H]1C[C@]1(NC(=O)[C@@H]1C[C@@H](Oc2ncc(OC)c3ccc(Cl)cc23)CN1C(=O)[C@@H](Nc1nc(-c2ccc(F)cc2)cs1)C(C)(C)C)C(=O)NS(=O)(=O)C1CC1 [Example 32]	7.70 to 9.00	7.30 to 9.00		
C=C[C@@H]1C[C@]1(NC(=O)[C@@H]1C[C@@H](Oc2ncc(OC)c3ccc(Cl)cc23)CN1C(=O)[C@@H](Nc1nc(-c2ccccc2OC)cs1)C(C)(C)C)C(=O)NS(=O)(=O)C1CC1 [Example 33]			8.05	8.16
C=C[C@@H]1C[C@]1(NC(=O)[C@@H]1C[C@@H](Oc2ncc(OC)c3ccc(Cl)cc23)CN1C(=O)[C@@H](Nc1nc(-c2ccc(C)cc2C)cs1)C(C)(C)C)C(=O)NS(=O)(=O)C1CC1 [Example 34]	7.70 to 9.00	7.30 to 9.00		
C=C[C@@H]1C[C@]1(NC(=O)[C@@H]1C[C@@H](Oc2ncc(OC)c3ccc(Cl)cc23)CN1C(=O)[C@@H](Nc1nc(-c2cccc(OC)c2)cs1)C(C)(C)C)C(=O)NS(=O)(=O)C1CC1 [Example 35]	7.70 to 9.00	7.30 to 9.00		
C=C[C@@H]1C[C@]1(NC(=O)[C@@H]1C[C@@H](Oc2ncc(OC)c3ccc(Cl)cc23)CN1C(=O)[C@@H](Nc1nc(-c2ccc3c(c2)OCCO3)cs1)C(C)(C)C)C(=O)NS(=O)(=O)C1CC1 [Example 36]	7.70 to 9.00	7.30 to 9.00		
C=C[C@@H]1C[C@]1(NC(=O)[C@@H]1C[C@@H](Oc2ncc(OC)c3ccc(Cl)cc23)CN1C(=O)[C@@H](Nc1nc(-c2ccc(Cl)cc2Cl)cs1)C(C)(C)C)C(=O)NS(=O)(=O)C1CC1 [Example 37]	6.70 to 7.70	7.30 to 9.00		
C=C[C@@H]1C[C@]1(NC(=O)[C@@H]1C[C@@H](Oc2ncc(OC)c3ccc(Cl)cc23)CN1C(=O)[C@@H](Nc1nc(-c2ccc(Cl)cc2)cs1)C(C)(C)C)C(=O)NS(=O)(=O)C1CC1 [Example 38]	7.70 to 9.00	7.30 to 9.00		
C=C[C@@H]1C[C@]1(NC(=O)[C@@H]1C[C@@H](Oc2ncc(OC)c3ccc(Cl)cc23)CN1C(=O)[C@@H](Nc1nc(-c2ccccc2F)cs1)C(C)(C)C)C(=O)NS(=O)(=O)C1CC1 [Example 39]	7.70 to 9.00	7.30 to 9.00		
C=C[C@@H]1C[C@]1(NC(=O)[C@@H]1C[C@@H](Oc2ncc(OC)c3ccc(Cl)cc23)CN1C(=O)[C@@H](Nc1nc(-c2ccc3c(c2)OCO3)cs1)C(C)(C)C)C(=O)NS(=O)(=O)C1CC1 [Example 40]	7.70 to 9.00	7.30 to 9.00		
C=C[C@@H]1C[C@]1(NC(=O)[C@@H]1C[C@@H](Oc2ncc(OC)c3ccc(Cl)cc23)CN1C(=O)[C@@H](Nc1nc(-c2ccc(N3CCOCC3)cc2)cs1)C(C)(C)C)C(=O)NS(=O)(=O)C1CC1 [Example 41]	7.70 to 9.00	7.30 to 9.00		
C=C[C@@H]1C[C@]1(NC(=O)[C@@H]1CC(Oc2ncc(OC)c3ccc(Cl)cc23)CN1C(=O)[C@@H](Nc1nc(-c2nc3ccccc3n2C)cs1)C(C)(C)C)C(=O)NS(=O)(=O)C1CC1 (stereo partly shown) [Example 42]	7.70 to 9.00	7.30 to 9.00		
C=C[C@@H]1C[C@]1(NC(=O)[C@@H]1C[C@@H](Oc2ncc(OC)c3ccc(Cl)cc23)CN1C(=O)[C@@H](Nc1nc(-c2cccc(F)c2)cs1)C(C)(C)C)C(=O)NS(=O)(=O)C1CC1 [Example 43]	7.70 to 9.00	7.30 to 9.00		
C=C[C@@H]1C[C@]1(NC(=O)[C@@H]1C[C@@H](Oc2ncc(OC)c3ccc(Cl)cc23)CN1C(=O)[C@@H](Nc1nc(-c2ccc(N(CC)CC)cc2)cs1)C(C)(C)C)C(=O)NS(=O)(=O)C1CC1 [Example 44]	7.70 to 9.00	7.30 to 9.00		
C=C[C@@H]1C[C@]1(NC(=O)[C@@H]1C[C@@H](Oc2ncc(OC)c3ccc(Cl)cc23)CN1C(=O)[C@@H](Nc1nc(-c2ccccc2)c(-c2ccccc2)s1)C(C)(C)C)C(=O)NS(=O)(=O)C1CC1 [Example 45]	7.70 to 9.00	7.30 to 9.00		
C=C[C@@H]1C[C@]1(NC(=O)[C@@H]1C[C@@H](Oc2ncc(OC)c3ccc(Cl)cc23)CN1C(=O)[C@@H](Nc1nc(-c2ccc(C(=O)O)cc2)cs1)C(C)(C)C)C(=O)NS(=O)(=O)C1CC1 [Example 46]	7.70 to 9.00	7.30 to 9.00		
C=C[C@@H]1C[C@]1(NC(=O)[C@@H]1C[C@@H](Oc2ncc(OC)c3ccc(Cl)cc23)CN1C(=O)[C@@H](Nc1nc(-c2c(F)c(F)c(F)c(F)c2F)cs1)C(C)(C)C)C(=O)NS(=O)(=O)C1CC1 [Example 47]	7.70 to 9.00	7.30 to 9.00		
C=C[C@@H]1C[C@]1(NC(=O)[C@@H]1C[C@@H](Oc2ncc(OC)c3ccc(Cl)cc23)CN1C(=O)[C@@H](Nc1nc(-c2cccc(Cl)c2)cs1)C(C)(C)C)C(=O)NS(=O)(=O)C1CC1 [Example 48]	7.70 to 9.00	7.30 to 9.00		
C=C[C@@H]1C[C@]1(NC(=O)[C@@H]1C[C@@H](Oc2ncc(OC)c3ccc(Cl)cc23)CN1C(=O)[C@@H](Nc1nc(-c2ccccc2Cl)cs1)C(C)(C)C)C(=O)NS(=O)(=O)C1CC1 [Example 49]	7.70 to 9.00	7.30 to 9.00		
C=C[C@@H]1C[C@]1(NC(=O)[C@@H]1C[C@@H](Oc2ncc(OC)c3ccc(Cl)cc23)CN1C(=O)[C@@H](Nc1nc(-c2ccccc2O)cs1)C(C)(C)C)C(=O)NS(=O)(=O)C1CC1 [Example 50]			7.41	7.72
C=C[C@@H]1C[C@]1(NC(=O)[C@@H]1C[C@@H](Oc2ncc(OC)c3ccc(Cl)cc23)CN1C(=O)[C@@H](Nc1nc(-c2ccc(OC)cc2F)cs1)C(C)(C)C)C(=O)NS(=O)(=O)C1CC1 [Example 51]	7.70 to 9.00	7.30 to 9.00		
C=C[C@@H]1C[C@]1(NC(=O)[C@@H]1C[C@@H](Oc2ncc(OC)c3ccc(Cl)cc23)CN1C(=O)[C@@H](Nc1nc(-c2ccc(F)c(Cl)c2)cs1)C(C)(C)C)C(=O)NS(=O)(=O)C1CC1 [Example 52]	7.70 to 9.00	7.30 to 9.00		
C=C[C@@H]1C[C@]1(NC(=O)[C@@H]1C[C@@H](Oc2ncc(OC)c3ccc(Cl)cc23)CN1C(=O)[C@@H](Nc1nc(-c2cc(Cl)cc(Cl)c2F)cs1)C(C)(C)C)C(=O)NS(=O)(=O)C1CC1 [Example 53]			7.77	7.69
C=C[C@@H]1C[C@]1(NC(=O)[C@@H]1C[C@@H](Oc2ncc(OC)c3ccc(Cl)cc23)CN1C(=O)[C@@H](Nc1nc(-c2cc(C)ccc2OC)cs1)C(C)(C)C)C(=O)NS(=O)(=O)C1CC1 [Example 54]	7.70 to 9.00	7.30 to 9.00		
C=C[C@@H]1C[C@]1(NC(=O)[C@@H]1C[C@@H](Oc2ncc(OC)c3ccc(Cl)cc23)CN1C(=O)[C@@H](Nc1nc(-c2cc(Cl)cc(Cl)c2OC)cs1)C(C)(C)C)C(=O)NS(=O)(=O)C1CC1 [Example 55]	7.70 to 9.00	7.30 to 9.00		
C=C[C@@H]1C[C@]1(NC(=O)[C@@H]1C[C@@H](Oc2ncc(OC)c3ccc(Cl)cc23)CN1C(=O)[C@@H](Nc1nc(-c2cc(F)ccc2OC)cs1)C(C)(C)C)C(=O)NS(=O)(=O)C1CC1 [Example 56]	7.70 to 9.00	7.30 to 9.00		
C=C[C@@H]1C[C@]1(NC(=O)[C@@H]1C[C@@H](Oc2ncc(OC)c3ccc(Cl)cc23)CN1C(=O)[C@@H](Nc1nc(-c2c(Cl)cccc2Cl)cs1)C(C)(C)C)C(=O)NS(=O)(=O)C1CC1 [Example 57]	7.70 to 9.00	7.30 to 9.00		

— US8163921B2, “Hepatitis C virus inhibitors” (Bristol-Myers Squibb Company, priority 2008, dated 2012)
